In brackets after ≈: the same amount, converted by molar mass. Activity calls are given as the source filed them. The calls are words filed in the database; no cut-off is given here.
Key:
Candida albicans [1] = assay: Antifungal activity against Candida albicans at MIC after 10 serial passages; format: functional, organism-based
Candida albicans [2] = assay: Antifungal activity against Candida albicans after 24 hrs by two-fold broth microdilution assay; format: functional
Candida tropicalis [3] = assay: Antifungal activity against Candida tropicalis after 24 hrs by two-fold broth microdilution assay; format: functional
Aspergillus fumigatus [4] = assay: Antifungal activity against Aspergillus fumigatus after 24 hrs by two-fold broth microdilution assay; format: functional
Candida albicans [5] = assay: Antifungal activity against Candida albicans ATCC 90023 after 24 hrs by two-fold broth microdilution assay; format: functional; conditions: ATCC 90023, 24 h
Candida parapsilosis [6] = assay: Antifungal activity against Candida parapsilosis ATCC 22019 after 24 hrs by two-fold broth microdilution assay; format: functional; conditions: Lodderomyces parapsilosis, ATCC 22019, 24 h
Candida tropicalis [7] = assay: Potency index, ratio of fluconazole MIC to test compound MIC for Candida tropicalis; format: functional
Candida parapsilosis [8] = assay: Potency index, ratio of fluconazole MIC to test compound MIC for Candida parapsilosis ATCC 22019; format: functional
Candida albicans [9] = assay: Fungicidal activity against Candida albicans incubated for 24 hrs followed by plating onto tryptic soy agar medium and measured after 24 hrs by broth microdilution method; format: functional
Candida tropicalis [10] = assay: Fungicidal activity against Candida tropicalis incubated for 24 hrs followed by plating onto tryptic soy agar medium and measured after 24 hrs by broth microdilution method; format: functional
Candida parapsilosis [11] = assay: Fungicidal activity against Candida parapsilosis ATCC 22019 incubated for 24 hrs followed by plating onto tryptic soy agar medium and measured after 24 hrs by broth microdilution method; format: functional; conditions: Lodderomyces parapsilosis, ATCC 22019, 24 h
Candida albicans [12] = assay: Ratio of MFC to MIC for Candida albicans; format: functional
Candida tropicalis [13] = assay: Ratio of MFC to MIC for Candida tropicalis; format: functional
Candida parapsilosis [14] = assay: Ratio of MFC to MIC for Candida parapsilosis ATCC 22019; format: functional
Candida albicans [15] = assay: Synergistic antifungal activity against Candida albicans after 18 hrs in presence of fluconazole by checkerboard assay; format: functional
Candida tropicalis [16] = assay: Synergistic antifungal activity against Candida tropicalis after 18 hrs in presence of fluconazole by checkerboard assay; format: functional
Aspergillus fumigatus [17] = assay: Synergistic antifungal activity against Aspergillus fumigatus after 18 hrs in presence of fluconazole by checkerboard assay; format: functional
Candida albicans [18] = assay: Synergistic antifungal activity against Candida albicans assessed as FIC index after 18 hrs in presence of fluconazole by checkerboard assay; format: functional
Candida tropicalis [19] = assay: Synergistic antifungal activity against Candida tropicalis assessed as FIC index after 18 hrs in presence of fluconazole by checkerboard assay; format: functional
Aspergillus fumigatus [20] = assay: Synergistic antifungal activity against Aspergillus fumigatus assessed as FIC index after 18 hrs in presence of fluconazole by checkerboard assay; format: functional
Candida albicans [21] = assay: Potentiation of fluconazole-induced antifungal activity against Candida albicans at MIC after 16 serial passages; format: functional, organism-based
Candida albicans [22] = assay: Induction of cytoplasmic membrane depolarization in Candida albicans measured for 300 secs by DiSC3-5 dye based fluorescence spectral analysis; format: functional, organism-based
Calf thymus DNA [23] = assay: Binding affinity to calf thymus DNA assessed as hypochromic shift up to 2 x 10^-5mol/L by UV absorption spectral analysis; format: nucleic-acid assay; conditions: Bos taurus
Calf thymus DNA [24] = assay: Binding affinity to calf thymus DNA by UV absorption spectral analysis; format: nucleic-acid assay; conditions: Bos taurus
Calf thymus DNA [25] = assay: Displacement of neutral dye from calf thymus DNA up to 2 x 10^-5mol/L by UV absorption spectra analysis; format: nucleic-acid assay; conditions: Bos taurus
Calf thymus DNA [26] = assay: Binding affinity to calf thymus DNA assessed as Stern-Volmer quenching constant at 1 x 10^-5 mol/L in presence of potassium iodide by fluorescence assay (reference value: 12.9 L/mol); format: nucleic-acid assay; conditions: Bos taurus
Albumin = Albumin (Homo sapiens, UniProt P02768); assay: Binding affinity to human serum albumin assessed as increase in peak intensity at tryptophan/tyrosine/phenylalanine residue up to 2 x 10^-5mol/L by UV-vis absorption spectra analysis; format: ADME; conditions: isolated protein
Chain of Albumin (P02768 whole entry): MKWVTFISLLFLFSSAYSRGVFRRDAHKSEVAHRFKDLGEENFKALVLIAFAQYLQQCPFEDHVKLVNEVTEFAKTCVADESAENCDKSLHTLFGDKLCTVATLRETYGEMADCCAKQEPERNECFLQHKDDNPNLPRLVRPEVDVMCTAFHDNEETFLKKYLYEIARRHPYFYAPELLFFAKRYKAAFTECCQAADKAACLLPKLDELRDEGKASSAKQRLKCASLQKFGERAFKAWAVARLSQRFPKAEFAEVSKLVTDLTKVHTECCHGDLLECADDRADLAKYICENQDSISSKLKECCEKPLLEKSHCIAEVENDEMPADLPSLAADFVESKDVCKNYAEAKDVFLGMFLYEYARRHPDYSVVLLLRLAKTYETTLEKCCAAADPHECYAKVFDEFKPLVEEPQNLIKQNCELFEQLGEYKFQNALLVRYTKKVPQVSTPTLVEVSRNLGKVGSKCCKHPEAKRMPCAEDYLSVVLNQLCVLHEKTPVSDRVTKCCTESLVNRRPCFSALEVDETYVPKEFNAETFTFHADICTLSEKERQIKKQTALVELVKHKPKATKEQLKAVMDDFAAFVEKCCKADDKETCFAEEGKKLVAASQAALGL

Staphylococcus aureus [27] = assay: Antibacterial activity against Staphylococcus aureus after 24 hrs by micro broth dilution method; format: functional
Staphylococcus aureus [28] = assay: Antibacterial activity against methicillin-resistant Staphylococcus aureus after 24 hrs by micro broth dilution method; format: functional
Enterococcus faecalis = assay: Antibacterial activity against Enterococcus faecalis after 24 hrs by micro broth dilution method; format: functional
Staphylococcus aureus [29] = assay: Antibacterial activity against Staphylococcus aureus ATCC 25923 after 24 hrs by micro broth dilution method; format: functional; conditions: ATCC 25923, 24 h
Staphylococcus aureus [30] = assay: Antibacterial activity against Staphylococcus aureus ATCC 29213 after 24 hrs by micro broth dilution method; format: functional; conditions: ATCC 29213, 24 h
Klebsiella pneumoniae = assay: Antibacterial activity against Klebsiella pneumoniae after 24 hrs by micro broth dilution method; format: functional
Escherichia coli [31] = assay: Antibacterial activity against Escherichia coli after 24 hrs by micro broth dilution method; format: functional
Acinetobacter baumannii = assay: Antibacterial activity against Acinetobacter baumannii after 24 hrs by micro broth dilution method; format: functional
Pseudomonas aeruginosa [32] = assay: Antibacterial activity against Pseudomonas aeruginosa after 24 hrs by micro broth dilution method; format: functional
Pseudomonas aeruginosa [33] = assay: Antibacterial activity against Pseudomonas aeruginosa ATCC 27853 after 24 hrs by micro broth dilution method; format: functional; conditions: ATCC 27853, 24 h
Escherichia coli [34] = assay: Antibacterial activity against Escherichia coli ATCC 25922 after 24 hrs by micro broth dilution method; format: functional; conditions: ATCC 25922, 24 h

Structure (SMILES): OC(Cn1cncn1)(Cn1c2ccc(Br)cc2c2cc(Br)ccc21)c1ccc(F)cc1F (stereo not drawn)
- Activity (Candida albicans [1]): Active
- MIC (Candida albicans [2]): 4 µg/mL (≈ 7.11 µM)
- MIC (Candida tropicalis [3]): 4 µg/mL (≈ 7.11 µM)
- MIC (Aspergillus fumigatus [4]): 32 µg/mL (≈ 56.9 µM)
- MIC (Candida albicans [5]): 8 µg/mL (≈ 14.2 µM)
- MIC (Candida parapsilosis [6]): 2 µg/mL (≈ 3.56 µM)
- Ratio (Candida tropicalis [7]): 2
- Ratio (Candida parapsilosis [8]): 2
- MFC (Candida albicans [9]): 8 µg/mL (≈ 14.2 µM)
- MFC (Candida tropicalis [10]): 8 µg/mL (≈ 14.2 µM)
- MFC (Candida parapsilosis [11]): 4 µg/mL (≈ 7.11 µM)
- Ratio (Candida albicans [12]): 2
- Ratio (Candida tropicalis [13]): 2
- Ratio (Candida parapsilosis [14]): 2
- MIC (Candida albicans [15]): 0.5 µg/mL
- MIC (Candida tropicalis [16]): 2 µg/mL
- MIC (Aspergillus fumigatus [17]): 16 µg/mL
- fractional inhibitory concentration index (FICI) (Candida albicans [18]): 0.25
- fractional inhibitory concentration index (FICI) (Candida tropicalis [19]): 0.75
- fractional inhibitory concentration index (FICI) (Aspergillus fumigatus [20]): 0.56
- Activity (Candida albicans [21]): Active
- Activity (Candida albicans [22]): Dose-dependent effect
- Activity (Calf thymus DNA [23]): Active
- K (Calf thymus DNA [24]): 7.8 ×10³ L/mol
- Activity (Calf thymus DNA [25]): Active
- KSV (Calf thymus DNA [26]): 10 L/mol
- Activity (Albumin): Active
- MIC (Staphylococcus aureus [27]): 64 µg/mL (≈ 114 µM)
- MIC (Staphylococcus aureus [28]): 4 µg/mL (≈ 7.11 µM)
- MIC (Enterococcus faecalis): 32 µg/mL (≈ 56.9 µM)
- MIC (Staphylococcus aureus [29]): 32 µg/mL (≈ 56.9 µM)
- MIC (Staphylococcus aureus [30]): 16 µg/mL (≈ 28.5 µM)
- MIC (Klebsiella pneumoniae): 128 µg/mL (≈ 228 µM)
- MIC (Escherichia coli [31]): 16 µg/mL (≈ 28.5 µM)
- MIC (Acinetobacter baumannii): 128 µg/mL (≈ 228 µM)
- MIC (Pseudomonas aeruginosa [32]): 64 µg/mL (≈ 114 µM)
- MIC (Pseudomonas aeruginosa [33]): 16 µg/mL (≈ 28.5 µM)
- MIC (Escherichia coli [34]): 32 µg/mL (≈ 56.9 µM)
